From paper PMC3102704, “New Classes of Alanine Racemase Inhibitors Identified by High-Throughput Screening Show Antimicrobial Activity against Mycobacterium tuberculosis” (PLoS ONE, 2011)
Values after ≈ are worked out from the molar mass of the structure shown. Values joined by “and” are separate entries in the source; they are usually repeats but may differ in a detail not shown here. Identical values can stand only once. Like-named read-outs stand apart in the source and are kept apart here.

Experiments:
[1] = target: T1, M. tuberculosis alanine racemase (Mycobacterium tuberculosis, UniProt P9WQA9); assay: biochemical; conditions: 30-minute pre-incubation with inhibitor, triplicate
T1 sequence (P9WQA9 whole entry): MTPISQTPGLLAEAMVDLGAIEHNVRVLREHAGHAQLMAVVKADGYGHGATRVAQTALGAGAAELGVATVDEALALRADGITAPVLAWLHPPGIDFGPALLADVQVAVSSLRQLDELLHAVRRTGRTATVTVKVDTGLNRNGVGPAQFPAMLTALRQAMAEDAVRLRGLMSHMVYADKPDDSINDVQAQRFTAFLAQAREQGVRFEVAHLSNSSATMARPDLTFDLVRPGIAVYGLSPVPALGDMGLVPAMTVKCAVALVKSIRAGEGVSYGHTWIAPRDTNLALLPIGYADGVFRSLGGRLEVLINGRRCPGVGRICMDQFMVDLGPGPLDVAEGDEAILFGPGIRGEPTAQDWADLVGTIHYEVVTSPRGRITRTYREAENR

M. tuberculosis H37Rv [2] = assay: Antimicrobial susceptibility in BACTEC MGIT 960 system; format: cell-based, Mycobacterium tuberculosis; conditions: for Mtb: antimicrobial activity against M. tuberculosis / Mtb: antimicrobial activity against M. tuberculosis (supplement table): M. tuberculosis H37Rv, BACTEC, 50 and 100 µg/ml; for Growth inhibition of M. tuberculosis H37Rv in BACTEC culture tubes: final concentration of 50 and 100 µg/ml
M. tuberculosis H37Rv [3] = assay: Microbroth dilution MIC determination; format: cell-based, Mycobacterium tuberculosis; conditions: for MIC: M. tuberculosis H37Rv, microbroth dilution, 21 days, read-out: MIC against M. tuberculosis
HeLa cells = assay: Compound cytotoxicity, WST-1 Cell Proliferation Reagent; format: cell-based; conditions: for TC50, cytotoxicity in HeLa cells: 48 hours exposure, WST-1
Experimental: HeLa cells were grown to confluence overnight (37°C, 5% CO2) in Dulbecco's Modified Eagle Medium with 10% fetal bovine serum (Invitrogen, Carlsbad, CA). The following day, 3000 cells were plated into each well of a 96-well plate and grown overnight. Compounds were diluted in culture medium and added to the cells to yield final concentrations of 100, 50, 25, 12.5, and 6.25 µg/ml. The cells were exposed to the compounds for 48 hours, after which the effect on cells was determined using the WST-1 Cell Proliferation Reagent (Roche Applied Science, Indianapolis, IN) according to manufacturer's protocols. Absorbance at 450 nm was used to calculate percent cytotoxicity with respect to a DMSO solvent control. The results were fitted onto a sigmoidal dose-response curve using Prism software to calculate the TC50 (compound concentration that causes 50% cell death).

[4] = target: T1, M. tuberculosis alanine racemase; format: binding; conditions: 4 µM alanine racemase with 1 mM inhibitor
Experimental: Electrospray ionization mass spectrometry (ESMS) was performed to detect direct interactions of inhibitors with enzyme. A mixture of 15 µl of sample (4 µM alanine racemase with 1 mM inhibitors) was diluted with 15 µl 2% acetonitrile/0.1% formic acid. Samples were then de-salted using C4 ZipTip, eluted into 15 µl 60% acetonitrile/0.1% formic acid, and directly injected into Qtof-micro MS instrument (Waters Corp., Milford, MA).

[5] = target: T1, M. tuberculosis alanine racemase; assay: biochemical; format: biochemical; conditions: D-alanine 0.5-2.5 mM, inhibitor 0.01 to 0.98 mM
[6] = Mycobacterium tuberculosis, 504 h

Compound | IC50 [1] | Mtb: antimicrobial activity against M. tuberculosis (M. tuberculosis H37Rv [2]) | Mtb: antimicrobial activity against M. tuberculosis (supplement table) (M. tuberculosis H37Rv [2]) | Increase in the MIC in the presence of D-alanine (M. tuberculosis H37Rv [3]; 5 mM D-alanine in the growth medium, data not shown) | MIC (M. tuberculosis H37Rv [3]; [6]) | TC50, cytotoxicity in HeLa cells (HeLa cells) | Nature of inhibitor-enzyme interaction by ESMS [4] | Growth inhibition of M. tuberculosis H37Rv in BACTEC culture tubes (M. tuberculosis H37Rv [2]) | Ki [5] | MIC (M. tuberculosis H37Rv [3]) | Cytotoxicity relative to MIC (HeLa cells; compared with MIC against M. tuberculosis)
2-(hydoxyimino)-6-methyl-2H-benzopyran-3-carboxamide [L2-14] | 2.8 µM | − | - |  |  |  |  |  |  |  | 
N[C@@H]1CONC1=O [CS, (4R)-4-amino-3-isoxazolidinone, reference compound] |  | + | + | 3 fold | 6.5 µg/mL and 65 µM | 203 µM | irreversible modification of the enzyme |  |  |  | 
Cc1ccc(S(=O)(=O)NN(C)C)cc1 [L2-01, N′,N′,4-trimethylbenzenesulfonohydrazide] | 9 µM | − | - |  |  |  |  |  |  |  | 
CN(C)NS(=O)(=O)c1ccc2c(c1)Cc1cc(S(=O)(=O)NN(C)C)ccc1-2 [L2-02, 2-N′,2-N′,7-N′,7-N′-tetramethyl-9H-fluorene-2,7-disulfonohydrazide] | 1.6 µM | − | - |  |  |  |  |  |  |  | 
O=C(COc1ccccc1O)NO [L2-03, N-hydroxy-2-(2-hydroxyphenoxy)acetamide] | 8.2 µM | − | - |  |  |  |  |  |  |  | 
CCOC(=O)CCSc1ccccn1 [L2-04, ethyl 3-(pyridin-2-ylthio)propanoate] | 2.6 µM | + | + |  | 59 µM (≈ 12.5 µg/mL) | 229.8 µM | reversible | inhibited growth at both concentrations | 38 µM |  | 
CS(=O)(=O)c1ncc(Cl)c(C(=O)NCc2ccccc2)n1 [L2-05, N-benzyl-5-chloro-2-methylsulfonylpyrimidine-4-carboxamide] | 6.8 µM | + | + |  | 9 µM (≈ 2.93 µg/mL) | 20 µM | irreversible | inhibited growth at both concentrations | 630 µM |  | 
COc1ccc(NC(=O)c2nc(S(C)(=O)=O)ncc2Cl)cc1Cl [L2-06, 5-chloro-N-(3-chloro-4-methoxyphenyl)2(methylsulfonyl)pyrimidine-4carboxamide] | 8.2 µM | + | + |  | < 4.5 µM | 18.8 µM | irreversible | inhibited growth at both concentrations | 760 µM |  | 
Cc1ccc(CC(=S)N2CCOCC2)cc1 [L2-07, 2-(4-methylphenyl)-1-morpholin-4-ylethanethione] | 6.5 µM | − | - |  |  |  |  |  |  |  | 
COc1ccc(CC(=S)N2CCOCC2)cc1 [L2-09, 2-(4-methoxyphenyl)-1-morpholin-4-ylethanethione] | 3.3 µM | − | - |  |  |  |  |  |  |  | 
COC(=O)c1cccc(C(=O)Oc2ccc(OC(=O)c3cccc(C(=O)OC)n3)c(Cl)c2)n1 [L2-10, 6-O-[3-chloro-4-(6-methoxycarbonylpyridine-2-carbonyl)oxyphenyl]2-O-methyl pyridine-2,6-dicarboxylate] | 1 µM | + | + |  |  | 157.2 µM | not definitive | inhibited growth at both concentrations | 680 µM | 13.6 µM (≈ 6.4 µg/mL) | 
O=C(O)CSC(=S)Nc1cccnc1 [L2-11, 2-(pyridin-3-ylcarbamothioylsulfanyl)acetic acid] | 13.1 µM | − | - |  |  |  |  |  |  |  | 
S=C(Cc1ccccc1)N1CCCCC1 [L2-12, 2-phenyl-1-piperidin-1-ylethanethione] | 6 µM | + | + |  | 28.6 µM (≈ 6.27 µg/mL) | 406 µM | irreversible | inhibited growth at both concentrations | 80 µM |  | 
CCOc1ccc(CCNC(=O)Cn2sc3nc(C)cc(C)c3c2=O)cc1 [L2-13, 2-(4,6-dimethyl-3-oxo-[1], [2]thiazolo[5,4-b]pyridin-2-yl)-N-[2-(4-ethoxyphenyl)ethyl]acetamide] | 7.7 µM | + | + |  |  | 36.4 µM | irreversible | inhibited growth at both concentrations | 930 µM | 16.2 µM (≈ 6.24 µg/mL) | 
CNC(=O)COc1ccccc1O [L2-15, 2-(2-hydroxyphenoxy)-N-methylacetamide] | 5.7 µM | − | - |  |  |  |  |  |  |  | 
O=C1Nc2ccccc2C(=O)C1(O)O [L2-16, 3,3-dihydroxy-1H-quinoline-2,4-dione] | 5.2 µM | + | + |  | 32.4 µM (≈ 6.26 µg/mL) | 33.7 µM | reversible | inhibited growth at both concentrations | 20 µM |  | cytotoxic at slightly above its MIC
O=C(c1cccs1)c1no[n+]([O-])c1C(=O)c1cccs1 [L2-18, 1,1′-(2-oxido-1,2,5-oxadiazole-3,4-diyl)-bis (1-(2-thienyl))-methanone] | 4.9 µM | − | - |  |  |  |  |  |  |  | 
